Experimental data reported in US7456167B2, “Cyclopropyl fused indolobenzazepine HCV NS5B inhibitors” (Bristol-Myers Squibb Company, priority 2006, dated 2008).
Where two headings read alike, the source gives them in different places.

How the values were obtained:
[1] = target: T1, HCV NS5B RdRp genotype 1b (Hepatitis C virus genotype 1b, UniProt Q9WMX2); experiment: Modified HCV NS5B RdRp enzyme assay (preincubation protocol); type: biochemical; conditions: HCV NS5B RdRp genotype 1b; preincubation protocol; read-out: IC50
T1 construct: The protein was expressed with an 18 amino acid C-terminal truncation to enhance the solubility; made in house; host or cells: E. coli BL21(DE3)
T1 sequence (Q9WMX2 2420-2992): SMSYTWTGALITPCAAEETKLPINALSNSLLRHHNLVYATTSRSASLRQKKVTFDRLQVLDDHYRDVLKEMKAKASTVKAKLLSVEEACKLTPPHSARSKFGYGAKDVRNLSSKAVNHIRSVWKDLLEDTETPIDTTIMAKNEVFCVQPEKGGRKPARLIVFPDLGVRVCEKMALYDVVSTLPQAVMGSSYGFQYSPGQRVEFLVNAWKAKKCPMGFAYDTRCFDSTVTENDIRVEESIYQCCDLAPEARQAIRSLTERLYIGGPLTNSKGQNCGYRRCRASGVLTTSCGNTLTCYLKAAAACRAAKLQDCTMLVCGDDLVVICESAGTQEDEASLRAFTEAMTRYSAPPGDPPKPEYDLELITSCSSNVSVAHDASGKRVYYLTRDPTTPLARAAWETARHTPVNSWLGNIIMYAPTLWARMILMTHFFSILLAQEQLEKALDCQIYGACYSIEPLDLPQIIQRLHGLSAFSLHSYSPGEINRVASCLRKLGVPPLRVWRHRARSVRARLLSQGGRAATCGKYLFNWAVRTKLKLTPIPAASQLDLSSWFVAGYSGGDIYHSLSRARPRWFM
Procedure: HCV NS5B RdRp cloning, expression, and purification. The cDNA encoding the NS5B protein of HCV, genotype 1b, was cloned into the pET21a expression vector. The protein was expressed with an 18 amino acid C-terminal truncation to enhance the solubility. The E. coli competent cell line BL21(DE3) was used for expression of the protein. Cultures were grown at 37° C. for ˜4 hours until the cultures reached an optical density of 2.0 at 600 nm. The cultures were cooled to 20° C. and induced with 1 mM IPTG. Fresh ampicillin was added to a final concentration of 50 μg/ml and the cells were grown overnight at 20° C.
Cell pellets (3 L) were lysed for purification to yield 15-24 mgs of purified NS5B. The lysis buffer consisted of 20 mM Tris-HCl, pH 7.4, 500 mM NaCl, 0.5% triton X-100, 1 mM DTT, 1 mM EDTA, 20% glycerol, 0.5 mg/ml lysozyme, 10 mM MgCl2, 15 ug/ml deoxyribonuclease I, and Complete TM protease inhibitor tablets (Roche). After addition of the lysis buffer, frozen cell pellets were resuspended using a tissue homogenizer. To reduce the viscosity of the sample, aliquots of the lysate were sonicated on ice using a microtip attached to a Branson sonicator. The sonicated lysate was centrifuged at 100,000×g for 1 hr at 4° C. and filtered through a 0.2 μm filter unit (Corning).
The protein was purified using three sequential chromatography steps: Heparin sepharose CL-6B, polyU sepharose 4B, and Hitrap SP sepharose (Pharmacia). The chromatography buffers were identical to the lysis buffer but contained no lysozyme, deoxyribonuclease I, MgCl2 or protease inhibitor and the NaCl concentration of the buffer was adjusted according to the requirements for charging the protein onto the column. Each column was eluted with a NaCl gradient which varied in length from 5-50 column volumes depending on the column type. After the final chromatography step, the resulting purity of the enzyme is >90% based on SDS-PAGE analysis. The enzyme was aliquoted and stored at −80° C.
Standard HCV NS5B RdRp enzyme assay. HCV RdRp genotype 1b assays were run in a final volume of 60 μl in 96 well plates (Costar 3912). The assay buffer is composed of 20 mM Hepes, pH 7.5, 2.5 mM KCl, 2.5 mM MgCl2, 1 mM DTT, 1.6 U RNAse inhibitor (Promega N2515), 0.1 mg/ml BSA (Promega R3961), and 2% glycerol. All compounds were serially diluted (3-fold) in DMSO and diluted further in water such that the final concentration of DMSO in the assay was 2%. HCV RdRp genotype 1b enzyme was used at a final concentration of 28 nM. A polyA template was used at 6 nM, and a biotinylated oligo-dT12 primer was used at 180 nM final concentration. Template was obtained commercially (Amersham 27-4110). Biotinylated primer was prepared by Sigma Genosys. 3H-UTP was used at 0.6 μCi (0.29 μM total UTP). Reactions were initiated by the addition of enzyme, incubated at 30° C. for 60 min, and stopped by adding 25 μl of 50 mM EDTA containing SPA beads (4 μg/μl, Amersham RPNQ 0007). Plates were read on a Packard Top Count NXT after >1 hr incubation at room temperature.
Modified HCV NS5B RdRp enzyme assay. A modified enzyme assay was performed essentially as described for the standard enzyme assay except for the following: The biotinylated oligo dT12 primer was precaptured on streptavidin-coated SPA beads by mixing primer and beads in assay buffer and incubating at room temperature for one hour. Unbound primer was removed after centrifugation. The primer-bound beads were resuspended in 20 mM Hepes buffer, pH 7.5 and used in the assay at final concentrations of 20 nM primer and 0.67 μg/μl beads. Order of addition in the assay: enzyme (14 nM) was added to diluted compound followed by the addition of a mixture of template (0.2 nM), 3H-UTP (0.6 μCi, 0.29 μM), and primer-bound beads, to initiate the reaction; concentrations given are final. Reactions were allowed to proceed for 4 hours at 30° C.
IC50 values for compounds were determined using seven different [I]. […]

HCV replicon cells = experiment: HCV replicon FRET assay; type: cell-based; conditions: HCV replicon cells, FRET assay, read-out: EC50
Text: FRET Assay Preparation. To perform the HCV FRET screening assay, 96-well cell culture plates were used. The FRET peptide (Anaspec, Inc.) (Taliani et al., Anal. Biochem. 1996, 240, 60-67) contains a fluorescence donor, EDANS, near one end of the peptide and an acceptor, DABCYL, near the other end. The fluorescence of the peptide is quenched by […] resonance energy transfer (RET) between the donor and the acceptor, but as the NS3 protease cleaves the peptide the products are released from RET quenching and the fluorescence of the donor becomes apparent. The assay reagent was made as follows: 5× cell Luciferase cell culture lysis reagent from Promega (#E153A) diluted to 1× with dH2O, NaCl added to 150 mM final, the FRET peptide diluted to 20 uM final from a 2 mM stock.
To prepare plates, HCV replicon cells, with or without a Renilla luciferase reporter gene, were trypsinized and placed into each well of a 96-well plate with titrated test compounds added in columns 3 through 12; columns 1 and 2 contained a control compound (HCV protease inhibitor), and the bottom row contained cells without compound. The plates were then placed in a CO2 incubator at 37° C.
Assays. Subsequent to addition of the test compounds described above (FRET Assay Preparation), at various times the plate was removed and Alamar blue solution (Trek Diagnostics, #00-100) was added per well as a measure of cellular toxicity. After reading in a Cytoflour 4000 instrument (PE Biosystems), plates were rinsed with PBS and then used for FRET assay by the addition of 30 ul of the FRET peptide assay reagent described above (FRET Assay Preparation) per well. The plate was then placed into the Cytoflour 4000 instrument which had been set to 340 excite/490 emission, automatic mode for 20 cycles and the plate read in a kinetic mode. Typically, the signal to noise using an endpoint analysis after the reads was at least three-fold. Alternatively, after Alamar blue reading, plates were rinsed with PBS, 50 ul of DMEM (high glucose) without phenol red was added and plates were then used for luciferase assay using the Promega Dual-Glo Luciferase Assay System.
Compound analysis was determined by quantification of the relative HCV replicon inhibition and the relative cytotoxicity values. To calculate cytoxicity values, the average Alamar Blue fluorescence signals from the control wells were set as 100% non-toxic. The individual signals in each of the compound test wells were then divided by the average control signal and multiplied by 100% to determine […]. To calculate the HCV replicon inhibition values, an average background value was obtained from the two wells containing the highest amount of HCV protease inhibitor at the end of the assay period. These numbers were similar to those obtained from naïve Huh-7 cells.
The background numbers were then subtracted from the average signal obtained from the control wells and this number was used as 100% activity. The individual signals in each of the compound test wells were then divided by the averaged control values after background subtraction and multiplied by 100% to determine percent activity. EC50 values for a protease inhibitor titration were calculated as the concentration which caused a 50% reduction in FRET or luciferase activity. The two numbers generated for the compound plate, percent cytoxicity and percent activity were used to determine compounds of interest for further analysis.

Structure (SMILES) | IC50 [1] | EC50 (HCV replicon cells; Hepatitis C virus) | EC50 (HCV replicon cells)
CCS(=O)(=O)C1Cc2ccccc2-c2c(C3CCCCC3)c3ccc(C(=O)O)cc3n2C1 (stereo not shown) | 20 to 1000 nM | 20 to 1000 nM | –
CCS(=O)(=O)C1Cc2ccccc2-c2c(C3CCCCC3)c3ccc(C(=O)NS(=O)(=O)N(C)C)cc3n2C1 (stereo not shown) | 20 to 1000 nM | 20 to 1000 nM | –
COc1ccc2c(c1)C1CC1(S(=O)(=O)N1C[C@@H](C)O[C@@H](C)C1)Cn1c-2c(C2CCCCC2)c2ccc(C(=O)NS(=O)(=O)N(C)C)cc21 (stereo partly shown) | 20 to 1000 nM | 20 to 1000 nM | –
COc1ccc2c(c1)C1CC1(S(=O)(=O)N1CCN(S(C)(=O)=O)CC1)Cn1c-2c(C2CCCCC2)c2ccc(C(=O)NS(=O)(=O)N(C)C)cc21 (stereo not shown) | 20 to 1000 nM | 20 to 1000 nM | –
COc1ccc2c(c1)C1CC1(S(=O)(=O)N1CCCN(C)CC1)Cn1c-2c(C2CCCCC2)c2ccc(C(=O)NS(=O)(=O)N(C)C)cc21 (stereo not shown) | 20 to 1000 nM | 20 to 1000 nM | –
COc1ccc2c(c1)C1CC1(S(=O)(=O)N(C)C)Cn1c-2c(C2CCCCC2)c2ccc(C(=O)NS(=O)(=O)N(C)C)cc21 (stereo not shown) | 20 to 1000 nM | 20 to 1000 nM | –
COc1ccc2c(c1)C1CC1(S(=O)(=O)N(C)CCN(C)C)Cn1c-2c(C2CCCCC2)c2ccc(C(=O)NS(=O)(=O)N(C)C)cc21 (stereo not shown) | 20 to 1000 nM | 20 to 1000 nM | –
COc1ccc2c(c1)C1CC1(S(=O)(=O)N(C)CC(=O)N1CCOCC1)Cn1c-2c(C2CCCCC2)c2ccc(C(=O)NS(=O)(=O)N(C)C)cc21 (stereo not shown) | 20 to 1000 nM | 20 to 1000 nM | –
COc1ccc2c(c1)C1CC1(S(=O)(=O)N1C3CC1CN(C)C3)Cn1c-2c(C2CCCCC2)c2ccc(C(=O)NS(=O)(=O)C3CC3)cc21 (stereo not shown) | 20 to 1000 nM | 20 to 1000 nM | –
COc1ccc2c(c1)C1CC1(S(=O)(=O)N1C3CC1CN(C)C3)Cn1c-2c(C2CCCCC2)c2ccc(C(=O)NS(=O)(=O)N3CCOCC3)cc21 (stereo not shown) | 20 to 1000 nM | 20 to 1000 nM | –
COc1ccc2c(c1)C1CC1(S(=O)(=O)N1CCC1)Cn1c-2c(C2CCCCC2)c2ccc(C(=O)NS(=O)(=O)N3CCOCC3)cc21 (stereo not shown) | 20 to 1000 nM | 20 to 1000 nM | –
COc1ccc2c(c1)C1CC1(S(=O)(=O)N1C3CC1CN(C)C3)Cn1c-2c(C2CCCCC2)c2ccc(C(=O)NS(=O)(=O)C(C)C)cc21 (stereo not shown) | 20 to 1000 nM | 20 to 1000 nM | –
COc1ccc2c(c1)C1CC1(S(=O)(=O)N1CCN3CCC1CC3)Cn1c-2c(C2CCCCC2)c2ccc(C(=O)NS(=O)(=O)C(C)C)cc21 (stereo not shown) | 20 to 1000 nM | 20 to 1000 nM | –
COc1ccc2c(c1)C1CC1(S(=O)(=O)N1CCN3CCC1CC3)Cn1c-2c(C2CCCCC2)c2ccc(C(=O)NS(=O)(=O)N(C)C)cc21 (stereo not shown) | 20 to 1000 nM | 20 to 1000 nM | –
CCN1CC2CC1CN2S(=O)(=O)C12CC1c1cc(OC)ccc1-c1c(C3CCCCC3)c3ccc(C(=O)NS(=O)(=O)C(C)C)cc3n1C2 (stereo not shown) | 20 to 1000 nM | 20 to 1000 nM | –
CCN1CC2CC1CN2S(=O)(=O)C12CC1c1cc(OC)ccc1-c1c(C3CCCCC3)c3ccc(C(=O)NS(=O)(=O)N4CCOCC4)cc3n1C2 (stereo not shown) | 20 to 1000 nM | 20 to 1000 nM | –
CCN1CC2CC1CN2S(=O)(=O)C12CC1c1cc(OC)ccc1-c1c(C3CCCCC3)c3ccc(C(=O)NS(=O)(=O)N(C)C)cc3n1C2 (stereo not shown) | 20 to 1000 nM | 20 to 1000 nM | –
COC[C@@H]1CN(S(=O)(=O)C23CC2c2cc(OC)ccc2-c2c(C4CCCCC4)c4ccc(C(=O)NS(=O)(=O)C(C)C)cc4n2C3)CCO1 (stereo partly shown) | 20 to 1000 nM | 20 to 1000 nM | –
COc1ccc2c(c1)C1CC1(S(=O)(=O)N1CCN3CCCC3C1)Cn1c-2c(C2CCCCC2)c2ccc(C(=O)NS(=O)(=O)N3CCOCC3)cc21 (stereo not shown) [drawing 64] | 20 to 1000 nM | 20 to 1000 nM | –
COc1ccc2c(c1)C1CC1(S(=O)(=O)N1CCN3CCCC3C1)Cn1c-2c(C2CCCCC2)c2ccc(C(=O)NS(=O)(=O)N3CCOCC3)cc21 (stereo not shown) [drawing 65] | 20 to 1000 nM | – | 20 to 1000 nM
